Data on 8 compounds can be found in ChEMBL document CHEMBL1121758, “(-)-4-Hydroxymorphinanones: their synthesis and analgesic activity” (1981).

The species entered for one experiment is Mus musculus. The experiment is described as follows: Antinociceptive activity determined in acetic acid induced mouse writhing test. The class given is functional. (An intraperitoneal irritant provokes the stretching counted in writhing tests.)
The subject of experiment [1] is Rattus norvegicus. The experiment is described as follows: Antagonist activity (administered subcutaneously) determined by rat tail flick test. Format: functional. The following applies: sc.
For experiment [2], the system named is Rattus norvegicus. The experiment is described as follows: Agonist activity (administered subcutaneously) determined by rat tail flick test. Format: functional. The following applies: sc.
Experiment [3] deals with Rattus norvegicus. Briefly: Antagonist activity (administered subcutaneously) determined by rat tail flick test; Inactive at 10 mg/kg. Also noted: dose 10 mg/kg. The class given is functional, organism-based. (In general: Hot-plate and tail-flick tests time the reaction to a heat stimulus.)

Active and inactive are the calls of the source. No cut-off for these calls is given here.

By ED50 is commonly meant the dose that gives a 50% effect, or the effect in half of the subjects.

In the experiment filed under Mus musculus, `COc1cccc2c1C13CCN(C)C(C2)C1CCC(=O)C3` (centres undefined) came in with an ED50 of 0.21 mg/kg.
With `O=C1CCC2C3Cc4cccc5c4C2(CCN3CC2CC2)C1O5` (centres undefined), the 50% effective dose (ED50) was determined as 12.5 mg/kg in the experiment with Rattus norvegicus [1] and 0.06 mg/kg in the experiment filed under Mus musculus.
Take `O=C1CCC2C3Cc4ccc(O)cc4C2(CCN3CC2CC2)C1` (centres undefined): the ED50 with Rattus norvegicus [1] amounted to 2.3 mg/kg.
In the case of `CN1CCC23CC(=O)CCC2C1Cc1cccc(O)c13` (centres undefined), the median effective dose (ED50) with Rattus norvegicus [2] worked out at 19.2 mg/kg; in the experiment listed under Mus musculus, 0.18 mg/kg.
With `C=CCN1CC[C@]23c4c5ccc(O)c4O[C@H]2[C@@H](O)C=C[C@H]3[C@H]1C5` [NALORPHINE], the ED50 turned out to be 0.86 mg/kg in the experiment on Rattus norvegicus [1] and 1.22 mg/kg in the experiment filed under Mus musculus.
With `CN1CC[C@]23c4c5ccc(O)c4O[C@H]2[C@@H](O)C=C[C@H]3[C@H]1C5.CN1CC[C@]23c4c5ccc(O)c4O[C@H]2[C@@H](O)C=C[C@H]3[C@H]1C5.O=S(=O)(O)O`, the median effective dose (ED50) in the experiment with Rattus norvegicus [2] came out at 7.3 mg/kg; in the experiment filed under Mus musculus it was 0.8 mg/kg.
On the same counts, the results for `CN1CCC23CC(=O)CCC2C1Cc1ccc(O)cc13` (centres undefined) are 20 mg/kg and 0.15 mg/kg.
With `O=C1CCC2C3Cc4cccc(O)c4C2(CCN3CC2CC2)C1` (centres undefined), the ED50 result in the experiment on Rattus norvegicus [3] is “inactive”. This compound registered an ED50 in the experiment filed under Mus musculus of 0.64 mg/kg.
